Measured values: PubChem BioAssay (NCI)
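Protocol summary: plate cells (96-well), add compound at 5 concentrations, incubate 48 h, interpolate endpoints linearly. At the TGI there is no net growth.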

How the values were obtained:
Experiment in all cases: inhibition of tumour cell growth, NCI panel, 48 h
HOP-62 NSCLC = system: HOP-62 NSCLC
TK-10 renal = system: TK-10 renal
OVCAR-3 ovarian = system: OVCAR-3 ovarian
COLO 205 colon = system: COLO 205 colon
CCRF-CEM leukemia = system: CCRF-CEM leukemia
EKVX NSCLC = system: EKVX NSCLC
NCI/ADR-RES ovarian = system: NCI/ADR-RES ovarian
HOP-92 NSCLC = system: HOP-92 NSCLC
T-47D breast = system: T-47D breast
SNB-75 CNS = system: SNB-75 CNS
SK-MEL-28 melanoma = system: SK-MEL-28 melanoma
HCT-116 colon = system: HCT-116 colon
HL-60(TB) leukemia = system: HL-60(TB) leukemia
HT29 colon = system: HT29 colon
SW-620 colon = system: SW-620 colon
A549 NSCLC = system: A549 NSCLC
SN12C renal = system: SN12C renal
OVCAR-5 ovarian = system: OVCAR-5 ovarian
HCT-15 colon = system: HCT-15 colon
MDA-MB-435 = system: MDA-MB-435
BT-549 breast = system: BT-549 breast
UO-31 renal = system: UO-31 renal
NCI-H23 lung = system: NCI-H23 lung
MALME-3M melanoma = system: MALME-3M melanoma
MDA-MB-231 breast = system: MDA-MB-231 breast
IGROV1 ovarian = system: IGROV1 ovarian
786-0 renal = system: 786-0 renal
LOX IMVI melanoma = system: LOX IMVI melanoma
MDA-N = system: MDA-N
SK-MEL-2 melanoma = system: SK-MEL-2 melanoma
UACC-62 melanoma = system: UACC-62 melanoma
HCC-2998 colon = system: HCC-2998 colon
K-562 leukemia = system: K-562 leukemia
KM12 colon = system: KM12 colon
SR leukemia = system: SR leukemia
HS 578T breast = system: HS 578T breast
U251 CNS = system: U251 CNS
PC-3 prostate = system: PC-3 prostate
UACC-257 melanoma = system: UACC-257 melanoma
SK-MEL-5 melanoma = system: SK-MEL-5 melanoma
OVCAR-8 ovarian = system: OVCAR-8 ovarian
A498 renal = system: A498 renal
NCI-H226 lung = system: NCI-H226 lung
DU-145 prostate = system: DU-145 prostate
OVCAR-4 ovarian = system: OVCAR-4 ovarian
ACHN renal = system: ACHN renal
MOLT-4 leukemia = system: MOLT-4 leukemia
CAKI-1 renal = system: CAKI-1 renal
NCI-H460 lung = system: NCI-H460 lung
SNB-19 CNS = system: SNB-19 CNS
M14 melanoma = system: M14 melanoma
SF-295 CNS = system: SF-295 CNS
RPMI-8226 leukemia = system: RPMI-8226 leukemia
SK-OV-3 ovarian = system: SK-OV-3 ovarian
SF-268 CNS = system: SF-268 CNS
MCF7 breast = system: MCF7 breast
RXF 393 renal = system: RXF 393 renal
NCI-H522 lung = system: NCI-H522 lung
SF-539 CNS = system: SF-539 CNS

COc1cccc(CCCNC(=O)Cc2cc(OC)c(OC)cc2CO)c1
TGI (HOP-62 NSCLC): > 100 µM
TGI (TK-10 renal): > 100 µM
TGI (OVCAR-3 ovarian): > 100 µM
TGI (COLO 205 colon): > 100 µM
TGI (CCRF-CEM leukemia): > 100 µM
TGI (EKVX NSCLC): > 100 µM
TGI (NCI/ADR-RES ovarian): > 100 µM
TGI (HOP-92 NSCLC): > 100 µM
TGI (T-47D breast): > 100 µM
TGI (SNB-75 CNS): > 100 µM
TGI (SK-MEL-28 melanoma): > 100 µM
TGI (HCT-116 colon): > 100 µM
TGI (HL-60(TB) leukemia): > 100 µM
TGI (HT29 colon): > 100 µM
TGI (SW-620 colon): > 100 µM
TGI (A549 NSCLC): > 100 µM
TGI (SN12C renal): > 100 µM
TGI (OVCAR-5 ovarian): > 100 µM
TGI (HCT-15 colon): > 100 µM
TGI (MDA-MB-435): > 100 µM
TGI (BT-549 breast): > 100 µM
TGI (UO-31 renal): > 100 µM
TGI (NCI-H23 lung): > 100 µM
TGI (MALME-3M melanoma): > 100 µM
TGI (MDA-MB-231 breast): > 100 µM
TGI (IGROV1 ovarian): > 100 µM
TGI (786-0 renal): > 100 µM
TGI (LOX IMVI melanoma): > 100 µM
TGI (MDA-N): > 100 µM
TGI (SK-MEL-2 melanoma): > 100 µM
TGI (UACC-62 melanoma): > 100 µM
TGI (HCC-2998 colon): > 100 µM
TGI (K-562 leukemia): > 100 µM
TGI (KM12 colon): > 100 µM
TGI (SR leukemia): > 100 µM
TGI (HS 578T breast): > 100 µM
TGI (U251 CNS): > 100 µM
TGI (PC-3 prostate): > 100 µM
TGI (UACC-257 melanoma): > 100 µM
TGI (SK-MEL-5 melanoma): > 100 µM
TGI (OVCAR-8 ovarian): > 100 µM
TGI (A498 renal): > 100 µM
TGI (NCI-H226 lung): > 100 µM
TGI (DU-145 prostate): > 100 µM
TGI (OVCAR-4 ovarian): > 100 µM
TGI (ACHN renal): > 100 µM
TGI (MOLT-4 leukemia): > 100 µM
TGI (CAKI-1 renal): > 100 µM
TGI (NCI-H460 lung): > 100 µM
TGI (SNB-19 CNS): > 100 µM
TGI (M14 melanoma): > 100 µM

COc1ccc2c(C)cc(=O)oc2c1OC
TGI (HOP-62 NSCLC): > 100 µM
TGI (TK-10 renal): > 100 µM
TGI (OVCAR-3 ovarian): > 100 µM
TGI (SF-295 CNS): > 100 µM
TGI (COLO 205 colon): > 100 µM
TGI (CCRF-CEM leukemia): > 100 µM
TGI (EKVX NSCLC): > 100 µM
TGI (NCI/ADR-RES ovarian): > 100 µM
TGI (RPMI-8226 leukemia): > 100 µM
TGI (SNB-75 CNS): > 100 µM
TGI (SK-MEL-28 melanoma): > 100 µM
TGI (HCT-116 colon): > 100 µM
TGI (HT29 colon): > 100 µM
TGI (SW-620 colon): > 100 µM
TGI (A549 NSCLC): > 100 µM
TGI (SN12C renal): > 100 µM
TGI (OVCAR-5 ovarian): > 100 µM
TGI (HCT-15 colon): > 100 µM
TGI (MDA-MB-435): > 100 µM
TGI (UO-31 renal): > 100 µM
TGI (SK-OV-3 ovarian): > 100 µM
TGI (NCI-H23 lung): > 100 µM
TGI (MALME-3M melanoma): > 100 µM
TGI (MDA-MB-231 breast): > 100 µM
TGI (IGROV1 ovarian): > 100 µM
TGI (786-0 renal): > 100 µM
TGI (LOX IMVI melanoma): > 100 µM
TGI (SF-268 CNS): > 100 µM
TGI (MDA-N): > 100 µM
TGI (SK-MEL-2 melanoma): > 100 µM
TGI (UACC-62 melanoma): > 100 µM
TGI (K-562 leukemia): > 100 µM
TGI (KM12 colon): > 100 µM
TGI (SR leukemia): > 100 µM
TGI (HS 578T breast): > 100 µM
TGI (U251 CNS): > 100 µM
TGI (PC-3 prostate): > 100 µM
TGI (UACC-257 melanoma): > 100 µM
TGI (MCF7 breast): > 100 µM
TGI (SK-MEL-5 melanoma): > 100 µM
TGI (OVCAR-8 ovarian): > 100 µM
TGI (A498 renal): > 100 µM
TGI (NCI-H226 lung): > 100 µM
TGI (DU-145 prostate): > 100 µM
TGI (OVCAR-4 ovarian): > 100 µM
TGI (ACHN renal): > 100 µM
TGI (MOLT-4 leukemia): > 100 µM
TGI (SNB-19 CNS): > 100 µM
TGI (M14 melanoma): > 100 µM

CS(=O)(=O)OCC(CCl)(CCl)CCl
TGI (TK-10 renal): > 100 µM
TGI (OVCAR-3 ovarian): > 100 µM
TGI (SF-295 CNS): > 100 µM
TGI (COLO 205 colon): > 100 µM
TGI (CCRF-CEM leukemia): > 100 µM
TGI (NCI/ADR-RES ovarian): > 100 µM
TGI (HOP-92 NSCLC): > 100 µM
TGI (RXF 393 renal): > 100 µM
TGI (T-47D breast): > 100 µM
TGI (SNB-75 CNS): > 100 µM
TGI (SK-MEL-28 melanoma): > 100 µM
TGI (HCT-116 colon): > 100 µM
TGI (HT29 colon): > 100 µM
TGI (SW-620 colon): > 100 µM
TGI (A549 NSCLC): > 100 µM
TGI (SN12C renal): > 100 µM
TGI (NCI-H522 lung): > 100 µM
TGI (HCT-15 colon): > 100 µM
TGI (MDA-MB-435): > 100 µM
TGI (UO-31 renal): > 100 µM
TGI (SK-OV-3 ovarian): > 100 µM
TGI (NCI-H23 lung): > 100 µM
TGI (MDA-MB-231 breast): > 100 µM
TGI (LOX IMVI melanoma): > 100 µM
TGI (SF-268 CNS): > 100 µM
TGI (MDA-N): > 100 µM
TGI (HCC-2998 colon): > 100 µM
TGI (K-562 leukemia): > 100 µM
TGI (KM12 colon): > 100 µM
TGI (SR leukemia): > 100 µM
TGI (HS 578T breast): > 100 µM
TGI (U251 CNS): > 100 µM
TGI (PC-3 prostate): > 100 µM
TGI (UACC-257 melanoma): > 100 µM
TGI (MCF7 breast): > 100 µM
TGI (SK-MEL-5 melanoma): > 100 µM
TGI (OVCAR-8 ovarian): > 100 µM
TGI (A498 renal): > 100 µM
TGI (NCI-H226 lung): > 100 µM
TGI (DU-145 prostate): > 100 µM
TGI (OVCAR-4 ovarian): > 100 µM
TGI (ACHN renal): > 100 µM
TGI (MOLT-4 leukemia): > 100 µM
TGI (NCI-H460 lung): > 100 µM
TGI (SNB-19 CNS): > 100 µM
TGI (M14 melanoma): > 100 µM

COC(=O)C1=C(C)NC(C)=C(C(=O)OCCCN2CCC(c3ccccc3)(c3ccccc3)CC2)C1c1cccc([N+](=O)[O-])c1 (centres undefined)
TGI (HOP-62 NSCLC): 9.16 µM
TGI (TK-10 renal): 7.34 µM
TGI (OVCAR-3 ovarian): 2.8 µM
TGI (SF-295 CNS): 3.18 µM
TGI (COLO 205 colon): 3.08 µM
TGI (CCRF-CEM leukemia): > 100 µM
TGI (EKVX NSCLC): 6.42 µM
TGI (NCI/ADR-RES ovarian): 3.42 µM
TGI (RPMI-8226 leukemia): 5.82 µM
TGI (HOP-92 NSCLC): 4.26 µM
TGI (RXF 393 renal): 3.43 µM
TGI (T-47D breast): 30.2 µM
TGI (SNB-75 CNS): 9.84 µM
TGI (SK-MEL-28 melanoma): 3.39 µM
TGI (HCT-116 colon): 2.86 µM
TGI (HL-60(TB) leukemia): 75 µM
TGI (HT29 colon): 2.71 µM
TGI (SW-620 colon): 3.75 µM
TGI (A549 NSCLC): 3.41 µM
TGI (SN12C renal): 2.99 µM
TGI (OVCAR-5 ovarian): 7.3 µM
TGI (NCI-H522 lung): 4.72 µM
TGI (HCT-15 colon): 3.19 µM
TGI (MDA-MB-435): 3.02 µM
TGI (UO-31 renal): 3.89 µM
TGI (SK-OV-3 ovarian): 12.9 µM
TGI (NCI-H23 lung): 3.32 µM
TGI (MALME-3M melanoma): 3.66 µM
TGI (MDA-MB-231 breast): 2.65 µM
TGI (IGROV1 ovarian): 3.21 µM
TGI (786-0 renal): 2.99 µM
TGI (SF-539 CNS): 3.27 µM
TGI (LOX IMVI melanoma): 3.2 µM
TGI (SF-268 CNS): 3.47 µM
TGI (MDA-N): 3.89 µM
TGI (SK-MEL-2 melanoma): 4.74 µM
TGI (UACC-62 melanoma): 3.24 µM
TGI (HCC-2998 colon): 4.58 µM
TGI (K-562 leukemia): > 100 µM
TGI (KM12 colon): 3.21 µM
TGI (SR leukemia): 4.5 µM
TGI (HS 578T breast): 4.57 µM
TGI (U251 CNS): 3.21 µM
TGI (PC-3 prostate): 3.05 µM
TGI (UACC-257 melanoma): 3.1 µM
TGI (MCF7 breast): 3.74 µM
TGI (SK-MEL-5 melanoma): 3.16 µM
TGI (OVCAR-8 ovarian): 3.39 µM
TGI (A498 renal): 8.69 µM
TGI (NCI-H226 lung): 18.2 µM
TGI (DU-145 prostate): 3.31 µM
TGI (OVCAR-4 ovarian): 2.98 µM
TGI (ACHN renal): 3.05 µM
TGI (MOLT-4 leukemia): 10 µM
TGI (CAKI-1 renal): 11.8 µM
TGI (NCI-H460 lung): 3.35 µM
TGI (SNB-19 CNS): 3.24 µM
TGI (M14 melanoma): 3.13 µM
